System: human iPSC
Assay: mThy1 gene targeting in hiPSC lentivirally overexpressing anti-apoptotic genes (EGFP+ vs EGFP- subsets)
Format: cell-based
Conditions: lentiviral overexpression
Text: FIGS. 3A-D. Overexpression of anti-apoptotic factors increases gene targeting rates in human iPSC, both for HR-mediated gene replacement and NHEJ-mediated gene excision. FIG. 3A. Mouse Thy1 gene targeting scheme. Two Crispr sgRNAs target human THY1 either within intron 1 (Left) or after the polyadenylation site (Right). The mouse Thy1 targeting vector plasmid contains mThy1 coding exons 2 and 3, flanked by hThy1 homology arms outside the sgRNA sites—coding exon 1 (which encodes the signal peptide) is retained but the sgRNA sites are disrupted. FIG. 3B. Plain human iPSC were infected with lentivirus that constitutively expresses EGFP together with an anti-apoptotic gene separated by an IRES. Three days after infection, each culture was nucleofected with plasmids encoding the mThy1 targeting vector, Cas9 nuclease, and Thy1 Left, Right, both, or no sgRNAs (pUC19). Five days later, cells were analyzed by flow cytometry. FIG. 3C. Representative FACS plots gated on live single cells: iPSC from each transfected culture were gated based on EGFP expression and the percentage of cells within those subsets that have gained mThy1 expression and/or lost hThy1 expression are indicated. […]
Subsequently, we determined whether rescue by these anti-apoptotic genes would result in higher gene editing frequencies in hiPSC. […]

Substance: Bcl-2: B cell lymphoma 2 protein, anti-apoptotic, overexpressed from lentivirus or Cas9 plasmid
- frequency of NHEJ-mediated hThy1 homozygous gene deletions (both Thy1 sgRNAs): increased
- frequency of HR-mediated mThy1 homozygous gene replacements (one sgRNA): dramatic increase

Reference: US11459586B2, “Methods for increasing efficiency of nuclease-mediated gene editing in stem cells” (President and Fellows of Harvard College, priority 2016, dated 2022)
